According to US20230058634A1, “PREVENTION OF PLATELET ACTIVATION AND CELL DIFFERENTIATION DURING THE PROCESSING OF BLOOD AND BLOOD-RELATED COMPOSITIONS” (GPB Scientific, Inc., priority 2020, published 2023):

What was measured:
[1] = system: CD45+ cell population; test: Singlets and aggregates in apheresis product by flow cytometry (side and forward scatter); format: cell-based; settings: FIG. 7 top panel; 14 mM Citrate (ACD-A), overnight, low/medium/high concentrations, compared to control with no inhibitors
[2] = system: cultured cells; settings: at micromolar concentrations; cited from earlier work
[3] = system: cell aggregates; test: Cell aggregates in apheresis product after 24 h, glass slide under microscope; format: cell-based; settings: FIG. 10, 14 mM Citrate, GSK484 10 micromolar, DTPA 10 micromolar, Tirofiban 2.5 micrograms/ml
Description: FIG. 9: An apheresis product is collected in 14 mM Citrate and divided into two different tubes—one with no further addition and a second tube with additional citrate for a final concentration of 28 mM (2X ACD-A). The tubes are left overnight at room temperature under rotation. After 24 h, aliquots of the tubes are spotted on a glass slide and are analyzed under the microscope for the presence of cell aggregates.
FIG. 10: An apheresis product is collected in 14 mM Citrate (ACD-A) and aliquots are taken and incubated with the different inhibitors, or in combination, in different tubes for 24 h. The tubes are left under rotation at room temperature. After 24 h, aliquots of the different tubes are spotted on a glass slide and are analyzed under a microscope for the presence of cell aggregates.

[4] = system: CD45+ cells; test: Cell viability in apheresis product by flow cytometry (CD45-PerCP and 7-AAD; % CD45+ cells); format: cell-based; settings: FIG. 7 lower panel; 14 mM Citrate, overnight; A23187 at 4 micromolar in DMEM media
Description: Cell viability may be determined by flow cytometry using CD45-PerCP and 7-AAD.
FIG. 7: An apheresis product is collected into 14 mM Citrate (ACD-A). […] The calcium ionophore A23187 is used at 4 micromolar in apheresis material resuspended in DMEM media. […] Determination of singlets and aggregates may be done by flow cytometry using side and forward scatter of the CD45+ cell population. Cell viability is determined as the % CD45+ cells.

[5] = system: neutrophils; settings: cited from earlier work
[6] = system: granulocytes; settings: incubation; cited from earlier work

## O=C(O)CN(CCN(CC(=O)O)CC(=O)O)CCN(CC(=O)O)CC(=O)O [DTPA, diethylenetriaminepentacetic acid]
[1]
  aggregation (singlets %): very effective at all concentrations tested
[2]
  apoptosis and cell death: induce apoptosis and cell death

## COc1cc(C(=O)N2CC[C@@H](O)[C@@H](N)C2)cc2nc(-c3cc4ccccc4n3CC3CC3)n(C)c12 [GSK484]
[1]
  aggregation (singlets %): inhibit aggregation in a dose dependent manner

## S=C=Nc1cccc(NC(=S)NCCCCNC(=S)Nc2cccc(N=C=S)c2)c1 [MRS2578]
[1]
  aggregation (singlets %): inhibit aggregation in a dose dependent manner

## c1ccc(CN(CCN(Cc2ccccn2)Cc2ccccn2)Cc2ccccn2)nc1 [TPEN, N,N,N′, N′-tetrakis(2-pyridylmethyl)ethylenediamine]
[2]
  apoptosis and cell death: induce apoptosis and cell death

## CCCCS(=O)(=O)N[C@@H](Cc1ccc(OCCCCC2CCNCC2)cc1)C(=O)O [Tirofiban, tirofiban]
[3]
  formation of cell aggregates: prevents the formation of cell aggregates

## CNc1ccc2oc(C[C@H]3O[C@@]4(CC[C@H]3C)O[C@H]([C@H](C)C(=O)c3ccc[nH]3)[C@H](C)C[C@H]4C)nc2c1C(=O)O [A23187]
[4]
  viability (% CD45+ cells): affect viability

## C[C@@H](N)[C@H]1CC[C@H](C(=O)Nc2ccncc2)CC1 [Y-27632]
[5]; pre-treatment
  NET formation induced by PMA and other challenges: inhibits NET formation
[6]
  chemotaxis of granulocytes: blocked the chemotaxis

## CCCCC(CC)CNC(=N)NC(=N)NCCCCCCNC(=N)NC(=N)NCC(CC)CCCC (stereo not drawn) [Alexidine]
[5]; after 2 h of incubation
  NETosis after 2 h of incubation: induces NETosis
[5]; in neutrophils
  NET formation induced by ionomycin: inhibits NET formation
[5]; without an increase of cytosolic calcium
  basal level of netosis: inhibits the basal level of netosis
